Experimental data published in publication PMC5161551 (Nature chemical biology, 2016).

Tests used:
ERα = molecular target: T1, ERα (Mus musculus, UniProt P19785); assay: ERα+ cells in mouse uterus; format: in vivo; conditions: mouse uterine tissue after the uterotrophic assay
T1 sequence (P19785 1-599): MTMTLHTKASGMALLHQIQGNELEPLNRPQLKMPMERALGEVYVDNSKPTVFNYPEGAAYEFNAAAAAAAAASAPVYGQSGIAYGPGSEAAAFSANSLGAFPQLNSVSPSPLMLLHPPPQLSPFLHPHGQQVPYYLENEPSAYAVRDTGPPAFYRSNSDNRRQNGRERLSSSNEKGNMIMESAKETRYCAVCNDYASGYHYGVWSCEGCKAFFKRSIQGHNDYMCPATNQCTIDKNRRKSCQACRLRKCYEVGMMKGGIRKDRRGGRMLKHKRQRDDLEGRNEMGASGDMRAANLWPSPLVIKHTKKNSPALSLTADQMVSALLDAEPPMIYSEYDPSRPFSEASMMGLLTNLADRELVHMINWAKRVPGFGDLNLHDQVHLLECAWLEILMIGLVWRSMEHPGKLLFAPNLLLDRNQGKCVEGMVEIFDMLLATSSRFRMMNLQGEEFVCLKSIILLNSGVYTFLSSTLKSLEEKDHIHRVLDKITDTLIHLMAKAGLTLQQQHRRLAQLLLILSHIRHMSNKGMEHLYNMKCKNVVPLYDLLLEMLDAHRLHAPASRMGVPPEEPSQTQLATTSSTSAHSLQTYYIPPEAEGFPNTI

[1] = system: complement component C3, lactoferrin, and aquaporin 5; assay: Uterine expression of E2-regulated genes; format: in vivo, mouse; conditions: ovariectomized mice, 4 days
[2] = system: uterus of ovariectomized mice; assay: Mouse uterotrophic assay; format: in vivo; conditions: 240 μg in combination with E2 (10 ng), sc, 4 days
IL-6 = assay: TNFα-induced IL-6 secretion in MCF-7 cells; format: cell-based, human; conditions: MCF-7, 10 ng/ml TNFα, ligand 10 μM, 24 hr

## C[C@]12CC[C@@H]3c4ccc(O)cc4C[C@@H](CCCCCCCCC[S+]([O-])CCCC(F)(F)C(F)(F)F)[C@H]3[C@@H]1CC[C@@H]2O (some centres unmarked) [fulvestrant]
ERα
  ERα expression in uterus (ERα+ cells): robustly inhibited ERα expression
[1]; 240 μg in combination with E2 (10 ng)
  effect on E2-stimulated expression of genes in uterus: markedly reduced the E2-stimulated expression levels of these genes
[1]; 240 μg
  expression of E2-induced genes in uterus (compound alone): failed to increase the expression of E2-induced genes
[2]
  effect on E2-stimulated uterine growth: significantly reduced the E2-stimulated uterine growth
IL-6
  inhibition of TNFα-induced IL-6 secretion: did not inhibit IL-6 secretion
